Columns and labels:
[1] = Inhibition of retinoblastoma susceptibility gene product phosphorylation in human MCF7 cells after 24 hrs
[2] = biological target: 3-phosphoinositide-dependent protein kinase 1 (Homo sapiens) (UniProt O15530); experiment: Inhibition of PDK1

Row | IC50 [1] [nM] | IC50 [2] [nM] | Structure (SMILES)
1 | 200 | – | CCCOc1cnc(CNC=C2C(=O)NC(=O)c3ccc(C(C)(C)C)cc32)cc1O [6-tert-Butyl-4-{[(4-hydroxy-5-propoxy-pyridin-2-ylmethyl)-amino]-methylene}-4H-isoquinoline-1,3-dione]
2 | 610 | 17000 | O=C1NC(=O)c2ccc(I)cc2C1=CNCc1ccc(-c2ccoc2)c(O)c1 [4-[(4-Furan-3-yl-3-hydroxy-benzylamino)-methylene]-6-iodo-4Hisoquinoline-1,3-dione]
3 | 370 | – | O=C1NC(=O)c2ccc(I)cc2C1=CNCc1ccn(-c2ccoc2)c(=O)c1 [(4Z)-4-[({[1-(3-Furyl)-2-oxo-1,2-dihydropyridin-4-yl]methyl}-amino)methylene]-6-iodoisoquinoline-1,3(2H,4H)-dione]

Reference: BindingDB's records for doi:10.1021/jm801026e (Wyeth Research, 2009)
